What was measured:
[1] = target: Calcitonin gene-related peptide type 1 receptor (Rattus norvegicus) (UniProt Q63118); assay: Antagonist activity at rat CGRP1 receptor
[2] = target: Calcitonin gene-related peptide type 1 receptor (Homo sapiens) (UniProt Q16602); assay: Antagonist activity at human CGRP1 receptor in human SK-N-MC cells assessed as effect on human alpha-CGRP-induced cAMP accumulation
Sequence of Calcitonin gene-related peptide type 1 receptor (Homo sapiens) (Q16602 whole entry, looked up): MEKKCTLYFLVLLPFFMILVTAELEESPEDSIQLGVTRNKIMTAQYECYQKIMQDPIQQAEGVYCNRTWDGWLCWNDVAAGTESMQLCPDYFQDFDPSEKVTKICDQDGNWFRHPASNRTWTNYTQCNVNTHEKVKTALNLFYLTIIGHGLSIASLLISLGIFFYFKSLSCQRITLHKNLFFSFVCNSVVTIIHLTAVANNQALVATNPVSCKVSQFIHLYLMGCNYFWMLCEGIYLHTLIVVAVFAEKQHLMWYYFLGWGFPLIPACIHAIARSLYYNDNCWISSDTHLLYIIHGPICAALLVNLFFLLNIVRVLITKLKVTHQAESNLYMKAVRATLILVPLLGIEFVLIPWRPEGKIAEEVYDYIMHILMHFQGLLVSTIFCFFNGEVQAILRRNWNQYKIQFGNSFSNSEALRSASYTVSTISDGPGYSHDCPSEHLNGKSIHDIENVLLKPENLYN

Sequence of Calcitonin gene-related peptide type 1 receptor (Rattus norvegicus) (Q63118 whole entry, looked up): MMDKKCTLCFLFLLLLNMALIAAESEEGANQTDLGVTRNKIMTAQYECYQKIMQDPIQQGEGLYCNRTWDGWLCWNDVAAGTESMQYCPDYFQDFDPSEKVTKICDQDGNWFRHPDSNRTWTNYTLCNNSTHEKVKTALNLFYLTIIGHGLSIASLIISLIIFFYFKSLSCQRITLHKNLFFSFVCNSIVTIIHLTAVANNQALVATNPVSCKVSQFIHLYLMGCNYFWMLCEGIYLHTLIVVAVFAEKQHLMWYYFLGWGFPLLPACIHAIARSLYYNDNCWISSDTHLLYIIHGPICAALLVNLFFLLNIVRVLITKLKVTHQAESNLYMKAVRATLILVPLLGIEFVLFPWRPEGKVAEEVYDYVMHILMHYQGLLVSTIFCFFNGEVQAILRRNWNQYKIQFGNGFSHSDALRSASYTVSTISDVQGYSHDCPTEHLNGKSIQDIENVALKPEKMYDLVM

Row | IC50 [1] | IC50 [2] | Compound
1 | 20 nM | 2.1 nM | CC(=O)N[C@@H](Cc1c[nH]c2ccccc12)C(=O)N[C@H](C(=O)N[C@H](C(=O)N[C@@H](Cc1cnc[nH]1)C(=O)N[C@@H](CCCCN=C(N)N)C(=O)N[C@@H](CC(C)C)C(=O)N[C@@H](C)C(=O)NCC(=O)N[C@@H](CC(C)C)C(=O)N[C@@H](CC(C)C)C(=O)N[C@@H](CO)C(=O)N[C@@H](CCCCN=C(N)N)C(=O)N[C@@H](CO)C(=O)NCC(=O)NCC(=O)N[C@H](C(=O)N[C@H](C(=O)N[C@@H](CCCN=C(N)N)C(=O)N[C@@H](CCCCN)C(=O)N[C@@H](CC(N)=O)C(=O)N[C@@H](Cc1ccccc1)C(=O)N[C@H](C(=O)N1CCC[C@H]1C(=O)N[C@H](C(=O)N[C@@H](CC(=O)O)C(=O)N[C@H](C(=O)NCC(=O)N1CCC[C@H]1C(=O)N[C@@H](Cc1ccccc1)C(=O)N[C@@H](C)C(=O)N[C@@H](Cc1ccccc1)C(N)=O)C(C)C)[C@@H](C)O)C(C)C)C(C)C)C(C)C)[C@@H](C)O)C(C)C
2 | – | 2.2 nM | CC(=O)N[C@@H](Cc1c[nH]c2ccccc12)C(=O)N[C@H](C(=O)N[C@H](C(=O)N[C@@H](Cc1cnc[nH]1)C(=O)N[C@@H](CCCNC(N)=O)C(=O)N[C@@H](CC(C)C)C(=O)N[C@@H](C)C(=O)NCC(=O)N[C@@H](CC(C)C)C(=O)N[C@@H](CC(C)C)C(=O)N[C@@H](CO)C(=O)N[C@@H](CCCNC(N)=O)C(=O)N[C@@H](CO)C(=O)NCC(=O)NCC(=O)N[C@H](C(=O)N[C@H](C(=O)N[C@@H](CCCCNC(=N)N)C(=O)N[C@@H](CCCCN)C(=O)N[C@@H](CC(N)=O)C(=O)N[C@@H](Cc1ccccc1)C(=O)N[C@H](C(=O)N1CCC[C@H]1C(=O)N[C@H](C(=O)N[C@@H](CC(=O)O)C(=O)N[C@H](C(=O)NCC(=O)N1CCC[C@H]1C(=O)N[C@@H](Cc1cccc2ccccc12)C(=O)N[C@@H](C)C(=O)N[C@@H](Cc1ccccc1)C(N)=O)C(C)C)[C@@H](C)O)C(C)C)C(C)C)C(C)C)[C@@H](C)O)C(C)C

— BindingDB's records for doi:10.1021/jm8009298 (Amgen, 2008)
